This assay concerns Escherichia coli BL21 Δ7 cells. As to the kind of experiment: cells. In kind it is cell-based. Particulars: BL21, 5 h, read-out: IC50 (toxic to cell growth).

For the molecule `COc1cccc2c1C(=O)c1c(O)c3c(c(O)c1C2=O)C[C@@](O)(C(=O)CO)C[C@@H]3O[C@H]1C[C@H](N)[C@H](O)[C@H](C)O1` [Doxorubicin, doxorubicin], the IC50 (commonly the concentration at which inhibition is half-maximal) was ~1000 nM.
